The text below walks through data of US11724980B2, “Quinones having high capacity retention for use as electrolytes in aqueous redox flow batteries” (President and Fellows of Harvard College, priority 2018, dated 2023).

Where two headings read alike, the source gives them in different places. A value given as a limit tells only on which side of the number the result lay.

What all share (type): physicochemical
Data set [1] can be described thus: physchem. Particulars: for decomposition: 0.1 M. The procedure:
FIGS. 24A-24D. Comparison of the stability of DPPEAQ with respect to alkyl chain cleavage to that of 2,6-DBEAQ at pH 14. ^1H NMR spectra (500 MHz, 10 mM NaCH3SO3 internal standard, δ 2.6 ppm) of (A) DPPEAQ at pH 14; (B) DPPEAQ at pH 14, treated for 5.5 days at 95° C. and 0.1 M concentration; (C) 2,6-DBEAQ at pH 14; (D) 2,6-DBEAQ at pH 14, treated for 5.5 days at 95° C. and 0.1 M concentration. […] The relative integrals and splitting of the peaks in the spectra of DPPEAQ after treatment are consistent with the products of (3-hydroxypropyl)phosphonate cleavage. Samples of DPPEAQ at 0.1 M concentration and pH 14 in both the oxidized and reduced form were stored in FEP bottles and heated in an oven at 65° C. for 2 weeks. The extent of decomposition was determined by ^1H NMR, with peak integrals measured relative to an internal standard of NaCH3SO3 prepared at 10 mM concentration in D2O.
By performing elevated temperature chemical stability studies, we have identified that the cleavage of γ-hydroxybutyrate is involved in the decomposition of the oxidized form of 2,6-DBEAQ (FIGS. 10A-10C and FIGS. 11A-11D), and we have characterized the time course of γ-hydroxybutyrate cleavage at pH 12 and pH 14 and at 0.1 M and 0.5 M concentration (FIG. 12 and FIGS. 13A-13C). […]; these observations are consistent with long redox flow battery lifetime at typical operating cell conditions.
We designed an analogue of 2,6-DBEAQ but with phosphonate-terminated functional groups, DPPEAQ, appearing to deliver both of these desired outcomes.
The differing relative stabilities of DPPEAQ and 2,6-DBEAQ at pH 12 (at 95° C. and 0.1 M concentration), in contrast to the similar extent of their observed decomposition at pH 14, may be due to a competition between multiple decomposition mechanisms that vary in a pH-dependent manner. The concentration of hydroxide ions at pH 14 is tenfold higher than the concentration of either molecule at 0.1 M, as opposed to tenfold lower at pH 12. In particular, we propose a hydroxide-mediated nucleophilic substitution reaction (SNAr or SN2) that dominates the decomposition of both molecules at pH 14. However, at a lower pH of 12, an intramolecular reaction with carboxylate acting as the nucleophile dominates in the decomposition of 2,6-DBEAQ, while no analogous intramolecular reaction of DPPEAQ at pH 12 can take place due to much weaker nucleophilicity of bulked phosphonate compared with carboxylate. The difference in the dominant mechanisms of 2,6-DBEAQ decomposition at pH 12 and 14 that we are proposing is also consistent with the observation that the initial rate of degradation is not 100-fold slower at pH 12 relative to pH 14. […] In addition, the operability at lower pH serves to decrease the corrosion of battery systems and enable the use of less expensive materials.

Data set [2] can be described thus: CV simulation as two one-electron reductions. Particulars: 5 mM in 1 M KOH. The procedure:
FIG. 6. Capacitance-corrected CV of 5 mM 2,6-DBEAQ in 1 M KOH (solid grey line). The dashed red line represents the simulated total current arising from two successive one-electron reductions with reduction potentials of −0.517 and −0.511 V vs. SHE, according to the procedure outlined in a previous publication.^1 Each simulated reduction has a rate constant ko=7×10^−3 cm/s and α=0.5.
A first CV experiment was performed in which 2,6-DBEAQ was dissolved in pH 14 KOH solution at a concentration of 5 mM. CV measurements were plotted in FIG. 5A and include results for the isomers of 2,6-DBEAQ.
Following our previous study on 2,6-DHAQ^17 and literature reports^1,18 on quinone electrochemistry in the absence of proton donors, we simulated the CV of 2,6-DBEAQ as representing two reversible electron transfer steps at two different potentials E1 and E2. The separation between simulated redox potentials for the first (E1) and second (E2) electron reductions for 2,6-DBEAQ is considerably narrower than the corresponding peak separation for 2,6-DHAQ^17 (6 mV vs. 60 mV).
The pH dependence of the proton-coupled electron transfer (POET) redox reaction for a generalized anthraquinone (AQ) is often visualized by the nine-membered square scheme (FIG. 7). The horizontal direction indicates electron transfer (ET), and the vertical direction indicates proton transfer (PT or protonation). Under strongly alkaline conditions, where the pH is higher than the second pKa (pKa2) of the reduced AQ (AQ^2−), no protonation of the semiquinone anion will take place, and reduction proceeds via two ET steps, from AQ to a semiquinone (AQ-^●) at E1, and from AQ-^● to AQ^2− at E2 which is typically <E1. Depending on the value of E1-E2, the mechanism of AQ reduction in alkaline conditions can either be a concerted one-step, two-electron process or two single-electron processes. […]

Data set [3] can be described thus: physchem. Particulars: for solubility: thermodynamic from solid. How it is done: Solubility limits of all DBEAQ isomers were measured in their oxidized forms by adding the potassium salt of DBEAQ (prepared by reacting DBEAQ with potassium hydroxide in water) until no further solid could be dissolved. After filtering the mixture through a PTFE 0.45 μm syringe filter, a saturated solution of DBEAQ in KOH was obtained. The saturated solution was then diluted by a known amount, and the concentration was evaluated by UV-Vis (Ocean Optics Flame-S Spectrometer Assembly) at 280 and 364 nm. […]
The solubility limit of DPPEAQ was measured in the oxidized form by adding the potassium salt of DPPEAQ (prepared by reacting DPPEAQ with potassium hydroxide in water) until no further solid could be dissolved. The mixture was adjusted to pH 9. After filtering the mixture through a PTFE 0.45 μm syringe filter, a saturated solution of DPPEAQ at pH 9 was obtained. The saturated solution was then diluted by a known amount while maintaining a pH of 9, and the concentration was evaluated by UV-Vis (Agilent Cary 60 spectrophotometer). The concentration was calculated according to a pre-calibrated absorbance-concentration curve of known concentrations of DPPEAQ at pH 9.

Broadly, the half-life is the time needed for the level to fall by half in the phase considered. A low value points to rapid decline. By solubility is commonly meant the concentration that dissolves in the medium under given conditions. `O=C([O-])CCCOc1ccc2c(c1)C(=O)c1ccc(OCCCC(=O)[O-])cc1C2=O.[K+].[K+]` [2,6-DBEAQ, 4,4′-((9,10-anthraquinone-2,6-diyl)dioxy)dibutyric acid]: the half-life in “physchem [1]” (buffer, room temperature, pH 14, 0.1 M, oxidized form, from elevated temperature studies) was ~1830 days. Also, the decomposition in the data set “physchem [1]” (pH 12, 6 days at 95° C.) worked out at 15%; in “physchem [1]” (pH 14, 5.5 days at 95° C.) it was 45%. Moreover, the “stability of the reduced form” value in the data set “physchem [1]” (temperatures up to 95° C.) was “quite stable”. Besides, the “rate constant ko of each simulated reduction” value in data set [2] (α=0.5) is 0.007 cm/s. For the same compound, the E1-E2 separation in data set [2] (simulated CV) is reported as 6 mV. For the same compound, the “Maximum Solubility” value in the data set “physchem [3]” (KOH, pH 12) was found to be 600 mM. The solubility is < 0.035 M in “physchem [3]” (pH 9, aqueous buffer, pH 9, read-out: solubility); > 0.5 M in “physchem [3]” (pH 12, aqueous buffer, KOH, pH 12, read-out: Maximum Solubility); 0.6 M in “physchem [3]” (pH 12, aqueous buffer, pH 12 (value in brackets), read-out: Solubility (M) at pH 14 (pH 12)); > 1 M in “physchem [3]” (pH 14, aqueous buffer, KOH, pH 14, read-out: Maximum Solubility); 1.1 M in “physchem [3]” (pH 14, aqueous buffer, pH 14 (value outside brackets), read-out: Solubility (M) at pH 14 (pH 12)).
